# Active and inactive are the calls of the source. No cut-off for these calls is given here.
# Tests used:
# [1] = Cell cycle arrest in human LOX cells assessed as accumulation at G1 phase; assay type: functional, cell-based
# LOX = assay: Induction of apoptosis in human LOX cells; assay type: functional, cell-based
# [2] = Antitumor activity against human LOX cells expressing B-Raf V600E mutant xenografted in nude mouse assessed as tumor growth inhibition at 50 mg/kg, po bid; assay type: functional; conditions: read-out: GI
# [3] = Antitumor activity against human LOX cells expressing B-Raf V600E mutant xenografted in nude mouse assessed as tumor growth inhibition at 500 mg/kg, po administered weekly once; assay type: functional; conditions: read-out: GI
# MIA PaCa-2 = assay: Antitumor activity against human MIAPaCa2 cells expressing K-Ras G12C mutant xenografted in nude mouse assessed as tumor growth inhibition at 50 mg/kg, po bid; assay type: functional; conditions: read-out: GI
# Mus musculus [4] = assay: Toxicity in human LOX cells expressing B-Raf V600E mutant xenografted nude mouse assessed as gross signs of adverse effect at 6.25 to 200 mg/kg, po bid for 3 weeks; assay type: organism-based; set-up: dose 6.25-200 mg/kg, route oral; conditions: in vivo, 504 h
# Mus musculus [5] = assay: Toxicity in human MIAPaCa2 cells expressing K-Ras G12C mutant xenografted nude mouse assessed as gross signs of adverse effect at 25 to 200 mg/kg, po bid for 3 weeks; assay type: organism-based, MIA PaCa-2; set-up: dose 25-200 mg/kg, route oral; conditions: in vivo, 504 h
# Mus musculus [6] = assay: Toxicity in human LOX cells expressing B-Raf V600E mutant xenografted nude mouse assessed as gross signs of adverse effect at 500 mg/kg, po administered weekly once for 3 weeks; assay type: organism-based; set-up: dose 500 mg/kg, route oral; conditions: in vivo, 504 h
# Mus musculus [7] = assay: Inhibition of MEK-mediated ERK phosphorylation in tumor of human LOX cells expressing B-Raf V600E mutant xenografted nude mouse at 100 mg/kg, po after 4 hrs by Western blot analysis relative to control; assay type: functional
# [8] = Plasma concentration in human LOX cells expressing B-Raf V600E mutant xenografted nude mouse at 100 mg/kg, po after 2 hrs; assay type: ADME, organism-based; set-up: dose 100 mg/kg, route oral
# [9] = Plasma concentration in human LOX cells expressing B-Raf V600E mutant xenografted nude mouse at 100 mg/kg, po after 8 hrs; assay type: ADME, organism-based; set-up: dose 100 mg/kg, route oral
# [10] = Drug level in human LOX cells expressing B-Raf V600E mutant xenografted nude mouse tumor at 100 mg/kg, po after 4 hrs; assay type: ADME, organism-based, Neoplasm; set-up: dose 100 mg/kg, route oral; conditions: read-out: Drug uptake
# Mus musculus [11] = assay: Inhibition of MEK-mediated ERK phosphorylation in tumor of human HT-29 cells expressing B-Raf V600E mutant xenografted nude mouse at 50 mg/kg, po after 4 hrs by Western blot analysis relative to control; assay type: functional; conditions: HT-29, 4 h
# [12] = Drug level in human HT-29 cells expressing B-Raf V600E mutant xenografted nude mouse tumor at 50 mg/kg, po after 4 hrs; assay type: ADME, organism-based, Neoplasm; set-up: dose 50 mg/kg, route oral; conditions: read-out: Drug uptake
# [13] = Drug level in human HT-29 cells expressing B-Raf V600E mutant xenografted nude mouse tumor at 50 mg/kg, po after 12 hrs; assay type: ADME, organism-based, Neoplasm; set-up: dose 50 mg/kg, route oral; conditions: read-out: Drug uptake
# Mus musculus [14] = assay: Inhibition of MEK-mediated ERK phosphorylation in tumor of human HT-29 cells expressing B-Raf V600E mutant xenografted nude mouse at 100 mg/kg, po after 4 hrs by Western blot analysis relative to control; assay type: functional; conditions: HT-29, 4 h
# Mus musculus [15] = assay: Inhibition of MEK-mediated ERK phosphorylation in tumor of human HT-29 cells expressing B-Raf V600E mutant xenografted nude mouse at 100 mg/kg, po after 8 hrs by Western blot analysis relative to control; assay type: functional; conditions: HT-29, 8 h
# [16] = Plasma concentration in human HT-29 cells expressing B-Raf V600E mutant xenografted nude mouse at 100 mg/kg, po after 4 hrs; assay type: ADME, organism-based; set-up: dose 100 mg/kg, route oral
# [17] = Plasma concentration in human HT-29 cells expressing B-Raf V600E mutant xenografted nude mouse at 100 mg/kg, po after 8 hrs; assay type: ADME, organism-based; set-up: dose 100 mg/kg, route oral
# [18] = Drug level in human HT-29 cells expressing B-Raf V600E mutant xenografted nude mouse tumor at 100 mg/kg, po after 2 hrs; assay type: ADME, organism-based, Neoplasm; set-up: dose 100 mg/kg, route oral; conditions: read-out: Drug uptake
# [19] = Cmax in human LOX cells expressing B-Raf V600E mutant xenografted nude mouse at 6.25 mg/kg, po bid; assay type: ADME, organism-based; set-up: dose 6.25 mg/kg, route oral; conditions: in vivo
# [20] = AUC (0 to 12 hrs) in human LOX cells expressing B-Raf V600E mutant xenografted nude mouse at 6.25 mg/kg, po bid; assay type: ADME, organism-based; set-up: time < 12 hr, dose 6.25 mg/kg, route oral; conditions: in vivo
# Mus musculus [21] = assay: Average drug concentration in human LOX cells expressing B-Raf V600E mutant xenografted nude mouse plasma at 6.25 mg/kg, po bid; assay type: ADME, organism-based; set-up: dose 6.25 mg/kg, route oral; conditions: in vivo
# [22] = Cmax in human LOX cells expressing B-Raf V600E mutant xenografted nude mouse at 12.5 mg/kg, po bid; assay type: ADME, organism-based; set-up: dose 12.5 mg/kg, route oral; conditions: in vivo
# [23] = Cmax in human LOX cells expressing B-Raf V600E mutant xenografted nude mouse at 25 mg/kg, po bid; assay type: ADME, organism-based; set-up: dose 25 mg/kg, route oral; conditions: in vivo
# Mus musculus [24] = assay: Average drug concentration in human LOX cells expressing B-Raf V600E mutant xenografted nude mouse plasma at 25 mg/kg, po bid; assay type: ADME, organism-based; set-up: dose 25 mg/kg, route oral; conditions: in vivo
# [25] = Cmax in human HT-29 cells expressing B-Raf V600E mutant xenografted nude mouse at 25 mg/kg, po bid; assay type: ADME, organism-based; set-up: dose 25 mg/kg, route oral; conditions: in vivo
# [26] = AUC (0 to 12 hrs) in human HT-29 cells expressing B-Raf V600E mutant xenografted nude mouse at 50 mg/kg, po bid; assay type: ADME, organism-based; set-up: time < 12 hr, dose 50 mg/kg, route oral; conditions: in vivo
# [27] = Cmax in human HT-29 cells expressing B-Raf V600E mutant xenografted nude mouse at 100 mg/kg, po bid; assay type: ADME, organism-based; set-up: dose 100 mg/kg, route oral; conditions: in vivo
# Mus musculus [28] = assay: Average drug concentration in human H460 cells expressing K-Ras Q61H mutant xenografted nude mouse plasma at 25 mg/kg, po bid; assay type: ADME, organism-based; set-up: dose 25 mg/kg, route oral; conditions: in vivo
# Mus musculus [29] = assay: Average drug concentration in human MIAPaCa2 cells expressing K-Ras G12C mutant xenografted nude mouse plasma at 25 mg/kg, po bid; assay type: ADME, organism-based, MIA PaCa-2; set-up: dose 25 mg/kg, route oral; conditions: in vivo
# [30] = AUC (0 to 12 hrs) in human MIAPaCa2 cells expressing K-Ras G12C mutant xenografted nude mouse at 100 mg/kg, po bid; assay type: ADME, organism-based, MIA PaCa-2; set-up: time < 12 hr, dose 100 mg/kg, route oral; conditions: in vivo
# Mus musculus [31] = assay: Average drug concentration in human MIAPaCa2 cells expressing K-Ras G12C mutant xenografted nude mouse plasma at 100 mg/kg, po bid; assay type: ADME, organism-based, MIA PaCa-2; set-up: dose 100 mg/kg, route oral; conditions: in vivo
# Mus musculus [32] = assay: Average drug concentration in human MIAPaCa2 cells expressing K-Ras G12C mutant xenografted nude mouse plasma at 200 mg/kg, po qd; assay type: ADME, organism-based, MIA PaCa-2; set-up: dose 200 mg/kg, route oral; conditions: in vivo
# Mus musculus [33] = assay: Inhibition of MEK-mediated ERK phosphorylation in po dosed human HT-29 cells expressing B-Raf V600E mutant xenografted nude mouse tumor by Western blot analysis; assay type: functional, organism-based
# [34] = molecular target: T1, Dual specificity mitogen-activated protein kinase kinase; MEK1/2 (Homo sapiens) (UniProt P36507+Q02750); conditions: HT-29, 2 to 10 uM
# Description: Inhibition of MEK1/2 phosphorylation in human HT-29 cells at 2 to 10 uM by Western blot analysis
# [35] = molecular target: T1, Dual specificity mitogen-activated protein kinase kinase; MEK1/2 (Homo sapiens); conditions: LOX, 2 to 10 uM
# Description: Inhibition of MEK1/2 phosphorylation in human LOX cells at 2 to 10 uM by Western blot analysis
# [36] = molecular target: T1, Dual specificity mitogen-activated protein kinase kinase; MEK1/2 (Homo sapiens); conditions: LOX, 2 to 10 uM; remark: listed apart in the source
# Description: Inhibition of MEK1/2 in human LOX cells assessed as down regulation of CDK4/cyclin D1 expression at 2 to 10 uM by Western blot analysis
# [37] = molecular target: T1, Dual specificity mitogen-activated protein kinase kinase; MEK1/2 (Homo sapiens); conditions: LOX, 2 to 10 uM; remark: listed apart in the source
# Description: Inhibition of MEK1/2 in human LOX cells assessed as upregulation of p27 expression at 2 to 10 uM by Western blot analysis
# T1 sequence (P36507 whole entry, looked up): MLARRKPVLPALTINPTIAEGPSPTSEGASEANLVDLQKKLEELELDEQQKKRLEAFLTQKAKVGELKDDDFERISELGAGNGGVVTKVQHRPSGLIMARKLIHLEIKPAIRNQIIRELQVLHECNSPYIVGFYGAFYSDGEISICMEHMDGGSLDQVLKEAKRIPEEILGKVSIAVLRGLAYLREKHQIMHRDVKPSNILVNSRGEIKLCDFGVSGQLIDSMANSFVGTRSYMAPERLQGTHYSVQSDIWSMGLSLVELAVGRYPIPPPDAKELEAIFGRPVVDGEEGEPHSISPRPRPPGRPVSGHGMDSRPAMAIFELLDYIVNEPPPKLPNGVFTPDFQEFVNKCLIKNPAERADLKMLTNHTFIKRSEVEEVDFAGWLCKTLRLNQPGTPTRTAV
# T1 sequence (Q02750 whole entry, looked up): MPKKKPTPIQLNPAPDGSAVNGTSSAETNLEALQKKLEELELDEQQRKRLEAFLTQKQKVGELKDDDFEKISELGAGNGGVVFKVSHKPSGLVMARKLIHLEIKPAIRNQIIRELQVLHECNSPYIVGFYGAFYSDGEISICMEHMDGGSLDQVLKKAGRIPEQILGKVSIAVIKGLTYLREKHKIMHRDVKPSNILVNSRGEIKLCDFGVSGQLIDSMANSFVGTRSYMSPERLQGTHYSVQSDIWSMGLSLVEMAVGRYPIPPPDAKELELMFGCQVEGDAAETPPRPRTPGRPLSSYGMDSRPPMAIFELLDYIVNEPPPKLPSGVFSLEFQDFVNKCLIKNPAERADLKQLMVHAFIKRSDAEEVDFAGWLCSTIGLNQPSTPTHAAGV
compound,measurement,setting,value
C[C@@H](c1ccccc1)[C@@H](C(=O)Nc1ccc(I)cc1F)N1C(=O)N[C@H](c2ccc(OC[C@H](O)CO)cc2)C1=O,Activity,[1],Active
same,Activity,LOX,Active
same,inhibition in vivo at 50 mg/kg,[2],> 100%
same,inhibition in vivo at 500 mg/kg,[3],> 100%
same,inhibition in vivo at 50 mg/kg,MIA PaCa-2,84%
same,Activity,Mus musculus [4],Non-toxic
same,Activity,Mus musculus [5],Non-toxic
same,Activity,Mus musculus [6],Non-toxic
same,inhibition in vivo at 100 mg/kg,Mus musculus [7],83%
same,concentration at 2 h,[8],6300 ng/mL
same,concentration at 8 h,[9],1410 ng/mL
same,concentration at 4 h,[10],2630 ng/g
same,inhibition in vivo at 50 mg/kg,Mus musculus [11],81%
same,concentration at 4 h,[12],1490 ng/g
same,concentration at 12 h,[13],188 ng/g
same,inhibition in vivo at 100 mg/kg,Mus musculus [14],79%
same,inhibition in vivo at 100 mg/kg,Mus musculus [15],0%
same,concentration at 4 h,[16],6030 ng/mL
same,concentration at 8 h,[17],741 ng/mL
same,concentration at 2 h,[18],2090 ng/g
same,Cmax,[19],750 ng/mL
same,AUC at 12 h,[20],3970 ng·h/mL
same,Cave,Mus musculus [21],331 ng/mL
same,Cmax,[22],1170 ng/mL
same,Cmax,[23],3790 ng/mL
same,Cave,Mus musculus [24],833 ng/mL
same,Cmax,[25],911 ng/mL
same,AUC at 12 h,[26],7310 ng·h/mL
same,Cmax,[27],4070 ng/mL
same,Cave,Mus musculus [28],733 ng/mL
same,Cave,Mus musculus [29],1058 ng/mL
same,AUC at 12 h,[30],32700 ng·h/mL
same,Cave,Mus musculus [31],2725 ng/mL
same,Cave,Mus musculus [32],2758 ng/mL
same,EC50,Mus musculus [33],1001 ng/g
same,inhibition,[34],Active
same,inhibition,[35],Active
same,inhibition,[36],Active
same,inhibition,[37],Active
